Assay results taken from ChEMBL document CHEMBL1201862, “PubChem BioAssay data set” (2004).
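Assay format: 96-well plates, 48-hour exposure. GI50 = concentration required for 50% inhibition of growth.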 Active and inactive are the calls of the source. Rule as the data show it: active = GI50 up to about 1.1 µM and inactive = higher.

How the values were obtained:
Assay in all cases: NCI anticancer screen, dose series, 48 h
A549 = test system: A549
DU-145 = test system: DU-145
HCC 2998 = test system: HCC 2998
HCT-116 = test system: HCT-116
HL-60 = test system: HL-60
K562 = test system: K562
KM12 = test system: KM12
M14 = test system: M14
MDA-MB-231 = test system: MDA-MB-231
MDA-MB-435 = test system: MDA-MB-435
MOLT-4 = test system: MOLT-4
OVCAR-3 = test system: OVCAR-3
OVCAR-5 = test system: OVCAR-5
SF-268 = test system: SF-268
SF-295 = test system: SF-295
SN12C = test system: SN12C
SNB-75 = test system: SNB-75
T47D = test system: T47D
TK-10 = test system: TK-10
UACC-62 = test system: UACC-62

Row | SMILES | GI50 (A549) | GI50 (DU-145) | GI50 (HCC 2998) | GI50 (HCT-116) | GI50 (HL-60) | GI50 (K562) | GI50 (KM12) | GI50 (M14) | GI50 (MDA-MB-231) | GI50 (MDA-MB-435) | GI50 (MOLT-4) | GI50 (OVCAR-3) | GI50 (OVCAR-5) | GI50 (SF-268) | GI50 (SF-295) | GI50 (SN12C) | GI50 (SNB-75) | GI50 (T47D) | GI50 (TK-10) | GI50 (UACC-62)
1 | Cc1cc2nc(N3C(=O)/C(=C/c4cccc([N+](=O)[O-])c4)N=C3c3ccccc3)sc2cc1C | 36.1 µM (inactive) | 42.8 µM (inactive) | 21.4 µM (inactive) | 23.9 µM (inactive) | 19.8 µM (inactive) | 30.1 µM (inactive) | 27.2 µM (inactive) | 37.2 µM (inactive) | 62.4 µM (inactive) | 12.8 µM (inactive) | 12.9 µM (inactive) | 32 µM (inactive) | 40.2 µM (inactive) | 25.9 µM (inactive) | 32.4 µM (inactive) | 26.7 µM (inactive) | 6.84 µM (inactive) | 27.1 µM (inactive) | 71.1 µM (inactive) | 33.5 µM (inactive)
2 | CSc1nc(NC2OCC(OC(C)=O)C(OC(C)=O)C2OC(C)=O)c(/N=C\C=N\c2c(NC3OCC(OC(C)=O)C(OC(C)=O)C3OC(C)=O)nc(SC)[nH]c2=O)c(=O)[nH]1 (stereo not given) | > 100 µM (inactive) | > 100 µM (inactive) | > 100 µM (inactive) | > 80.2 µM (inactive) | > 100 µM (inactive) | > 100 µM (inactive) | > 100 µM (inactive) | > 100 µM (inactive) | > 100 µM (inactive) | > 100 µM (inactive) | > 100 µM (inactive) | > 100 µM (inactive) | > 71.8 µM (inactive) | > 100 µM (inactive) | > 66.8 µM (inactive) | > 100 µM (inactive) | 19.9 µM (inactive) | 89.7 µM (inactive) | 56.9 µM (inactive) | > 100 µM (inactive)
3 | Clc1ccc(C2c3ccccc3-c3nc4ccccc4n32)cc1 (stereo not given) | 7.33 µM (inactive) | 58.2 µM (inactive) | 18.9 µM (inactive) | 5.09 µM (inactive) | 3.65 µM (inactive) | > 22.4 µM (inactive) | 13 µM (inactive) | 31.8 µM (inactive) | > 84.1 µM (inactive) | 32.7 µM (inactive) | 8.09 µM (inactive) | 12.6 µM (inactive) | 25.4 µM (inactive) | 25 µM (inactive) | 3.48 µM (inactive) | 42.1 µM (inactive) | 24.3 µM (inactive) | > 27.2 µM (inactive) | > 66.7 µM (inactive) | 26.3 µM (inactive)
4 | COc1ccc(/C=C(\Cl)c2ccc(OC)c(OC)c2)cc1OC | > 100 µM (inactive) | > 100 µM (inactive) | > 100 µM (inactive) | > 100 µM (inactive) | > 100 µM (inactive) | > 100 µM (inactive) | > 100 µM (inactive) | > 100 µM (inactive) | > 100 µM (inactive) | > 100 µM (inactive) | > 100 µM (inactive) | > 100 µM (inactive) | > 100 µM (inactive) | > 100 µM (inactive) | > 91.8 µM (inactive) | > 100 µM (inactive) | > 100 µM (inactive) | > 100 µM (inactive) | > 100 µM (inactive) | > 100 µM (inactive)
5 | COc1ccc(/N=N/c2c(C)c(C#N)c(=S)n(C3OC(CO)C(O)C(O)C3O)c2-c2ccccc2)cc1 (stereo not given) | 36.7 µM (inactive) | 32.1 µM (inactive) | 88.5 µM (inactive) | 30.1 µM (inactive) | 58.2 µM (inactive) | 19.3 µM (inactive) | 43.5 µM (inactive) | 24.9 µM (inactive) | 51.1 µM (inactive) | 24.5 µM (inactive) | 9.04 µM (inactive) | 24.7 µM (inactive) | 36.9 µM (inactive) | 44.9 µM (inactive) | 30.8 µM (inactive) | 32.3 µM (inactive) | 17.2 µM (inactive) | 27.1 µM (inactive) | 39.5 µM (inactive) | 18.8 µM (inactive)
6 | Cc1c(CNc2ccc(Cl)c(Cl)c2Cl)cnc2nc(N)nc(N)c12 | 0.0352 µM (active) | 0.294 µM (active) | 3.17 µM (inactive) | 0.0208 µM (active) | 0.607 µM (active) | < 0.0132 µM (active) | 4.99 µM (inactive) | 0.942 µM (active) | 0.891 µM (active) | 0.107 µM (active) | 0.164 µM (active) | 13.6 µM (inactive) | 11 µM (inactive) | 0.404 µM (active) | 0.065 µM (active) | 1.36 µM (inactive) | 10.4 µM (inactive) | 4.24 µM (inactive) | 14.1 µM (inactive) | 0.0771 µM (active)
